Several values for one entry are separate records, joined by “and”; a condition that tells them apart may be missing. Equal entries are not always repeated. Entries after “also recorded” stand apart in the source; their conditions may differ. Where two headings read alike, the source gives them in different places. Values belong to the molecule of their own block, whether it stands above or below them. Where a SMILES comes first, the peptide text is derived from it.
How the values were obtained:
[1] = biological target: T1, LOX-12 (Homo sapiens, UniProt P18054); test: Inhibition of human LOX-12 activity, spectrophotometric screen; format: biochemical; settings: LOX-12 incubated with peptide 30 min; arachidonic acid, 0.2% Tween-20, 50 mM potassium phosphate pH 7.2; absorbance 269 nm; average of triplicates; inhibitor concentration not given
T1 construct: made in house; host or cells: E. coli BL21 codon+ (pET28a)
T1 sequence (P18054 1-663): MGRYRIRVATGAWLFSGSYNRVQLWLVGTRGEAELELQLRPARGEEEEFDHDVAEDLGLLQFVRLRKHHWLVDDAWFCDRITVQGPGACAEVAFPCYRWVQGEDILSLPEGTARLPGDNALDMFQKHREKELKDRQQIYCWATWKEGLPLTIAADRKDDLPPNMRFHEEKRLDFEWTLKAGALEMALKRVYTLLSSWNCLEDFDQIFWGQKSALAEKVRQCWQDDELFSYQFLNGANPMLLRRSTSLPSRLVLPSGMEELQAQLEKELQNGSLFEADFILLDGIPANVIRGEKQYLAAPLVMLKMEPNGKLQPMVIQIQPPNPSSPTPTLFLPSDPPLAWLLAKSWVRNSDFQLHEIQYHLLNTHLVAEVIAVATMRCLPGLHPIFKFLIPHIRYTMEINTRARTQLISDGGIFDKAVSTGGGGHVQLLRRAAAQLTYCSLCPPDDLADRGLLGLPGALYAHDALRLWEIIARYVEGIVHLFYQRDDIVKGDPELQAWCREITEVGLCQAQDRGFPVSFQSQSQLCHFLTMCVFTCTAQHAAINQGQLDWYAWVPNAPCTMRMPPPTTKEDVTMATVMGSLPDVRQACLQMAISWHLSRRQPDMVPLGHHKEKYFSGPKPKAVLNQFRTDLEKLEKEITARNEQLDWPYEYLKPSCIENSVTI
Method: For inhibition study, the human LOX-12 was incubated with peptide for 30 min, which was then added to the reaction buffer containing arachidonic acid (substrate), 0.2% Tween-20, 50 mM potassium phosphate buffer pH 7.2. The change in absorbance was monitored at 269 nm and the percentage of inhibition was calculated. A control reaction was always carried out without any peptide inhibitor to ensure the activity of protein under experimental conditions.
The activity assay for LOX-12 in presence of 10 different peptides with substrate was performed by using spectrophotometer. The assay was performed at 269 nm which gives the absorption maxima for the product LTB4.

[2] = biological target: T1, LOX-12; test: SPR binding of peptides to immobilized His-LOX-12 (BIAcore 2000); settings: His-LOX-12 on Ni2+-NTA chip, analyte 25, 50, 75 µM, flow 10 µl/min, BIA evaluation 3.0, read-out: Dissociation constant KD
[3] = system: human red blood cells; test: Hemolysis of human red blood cells; format: cell-based; settings: concentration upto 358 µM; hRBC 1% (v/v) in PBS pH 7.0, 1 h at 37°C, absorbance 541 nm, triplicate
Method: The effect of peptide on hemolysis was determined by using human red blood cells (hRBC from volunteer). The freshly collected hRBC were centrifuged for 10 mins to remove the buffy coat and washed with phosphate buffered saline (PBS: 35 mM Na2HPO4, pH 7.0 and 150 mM NaCl). 100 µl of the hRBC (suspended in 1% (v/v) in PBS) and 10 µl peptide solution were added into the sterile 96 well plates in triplicate. The plates were incubated for 1 h at 37°C and centrifuged at 1000× g for 5 mins. The supernatant were transferred to fresh 96 well plates, where hemoglobin released was monitored by measuring the absorbance spectrophotometrically at 541 nm. Similar steps were carried out for Gentamycin, as a control. The percentage of hemolysis (determined in PBS and 0.1% Triton X-100) was calculated from the standard graph which was plotted with % hemolysis of prepared RBCs vs optical densities.
The haemolytic activity of the peptide was determined to ensure the toxicity to erythrocytes using human RBCs. The concentration upto 358 µM of the peptide lysed only 22% human erythrocytes ( Figure 2 ).

[4] = system: MDA-MB-231 cells; test: Annexin-V binding apoptosis assay by flow cytometry, MDA-MB-231; format: cell-based, human; settings: 72 h, annexin-V/PI flow cytometry
[5] = system: MDA-MB-231; settings: 72 h; for percentage of cell viability: MDA-MB-231, MTT
Method: (§1) Cytotoxic effect of LOX-12 inhibitory peptides was analyzed on MCF-7 (ER+) and MDA-MB-231 (ER+) breast cancer cell lines by MTT [3-(4, 5-dimethylthiazol-2-yl)-2, 5-diphenyltetrazolium bromide] dye reduction assay. Briefly, 3×10^3 cells/100 µl media were seeded in 96-well plates 24 h before the experiment. The cells were then incubated with different concentrations of the peptides for 24, 48 and 72 h as indicated. The cells were treated with DMSO (same concentration as used to solubilise the peptide) which was then subtracted from all the cytotoxic values.10 µl/well MTT-solution (10 mg/ml in PBS) was then added and plates were further incubated for 3 h at 37°C. The formazan crystals formed were dissolved by adding 100 µl/well of dimethyl sulfoxide (DMSO). Absorbance was measured by a microplate reader at 570 nm with a reference filter 650 nm. 100 µl of medium with 10 µl of MTT stock-solution and 100 µl of DMSO was used as a blank solution to correct the background. The data obtained was presented as percentage viability in the best-fit (linear) dose response curve. The IC50 values at 95% confidence intervals was calculated for all cell lines. Each concentration was used in triplicate. The peptide AIRS was used as a negative control.
(§2) MCF-7 cells were treated with 0–150 µM (0.05% DMSO as a vehicle control) and MDA-MB-231 was treated with 0–500 µM (0.05% DMSO as a vehicle control) of the LOX-12 inhibitory peptides for 24, 48 and 72 h to perform the cytotoxic activity.

[6] = biological target: T1, LOX-12; test: Kinetic assay of LOX-12 inhibition (Michaelis-Menten, competitive Ki); format: biochemical
Method: For kinetic assay, the above experiment was done with four different concentrations of peptides (25–100 µM). For each concentration of peptide the experiment was repeated with six different concentrations (20–120 µM) of substrate, arachidonic acid. The enzyme concentration was constant (1.0 µM) throughout the assay. The competitive kinetic constant (Ki) was calculated graphically using the Michaelis-Menton equation in graphpad prism software. The graph of activity vs. concentration of arachidonic acid was plotted.
Competitive kinetic constant of the best peptide YWCS was calculated using graphpad prism software.

[7] = system: MCF-7; settings: MCF-7, MTT, 72 h
Method: as §1, §2

[8] = system: MCF-7 cells; test: Annexin-V binding apoptosis assay by flow cytometry, MCF-7; format: cell-based, human; settings: 72 h, annexin-V/PI flow cytometry
Method: The frequency of apoptosis in MCF7 cells and MDA-MB-231 by the treatment with YWCS was assayed by annexin-V binding assay. Briefly, MCF7 cells and MDA-MB-231 were pulsed with the peptide for 72 h. After termination of the culture, cells were stained with annexin-V apoptosis detection kit (Biolegend) according to the manufacturer's instructions. The cells were washed twice with PBS, and resuspended in annexin-V binding buffer. To the cell suspension, 5 µl of FITC-conjugated annexin-V (Biolegend) and 10 µl of propidium iodide (PI) (50 µg/ml) solution were added and further incubated for 15 min at room temperature. About 10,000 events were acquired in FACS Canto flow cytometer (Becton–Dickinson, USA). The frequency of annexin-positive (apoptotic) cells was determined using BD FACSDiva software.
The apoptotic activity of the peptide YWCS was performed using annexin-V binding assay. Apoptosis induction was observed as early as 72 h.

[9] = system: Ehrlich's Ascites Tumor cell line (EAT) (murine breast carcinoma); test: Antitumor activity in Swiss albino mice implanted with EAT tumor cell line; format: in vivo
Method: In-vivo animal experimentation of peptide for anticancer activity was done using mice model. Swiss albino mice were obtained from Central animal facility, AIIMS at 55–65 days of age. The animals were housed in polycarbonated cages, bedded with husk. The animal facility was environmentally controlled; mice were maintained at normal room temperature with suitable relative humidity and 12 h light, 12 h dark cycle. Animals were fed chow food and purified water ad libitum throughout the study. Animals were randomized into 5mice per cage in 3 groups (Group I, II and III) for the study.
Ehrlich's Ascites Tumor cell line (EAT) (murine breast carcinoma), was used for tumor induction. The cell line was maintained in-vivo by passaging weekly intraperitonealy (i.p) from mice to mice. For tumor induction, 14 million cells approximately 150 µl volumes was injected to the animal in a group subcutaneously on the dorsal side of the body (back) and kept under observation for tumor onset.
Tumor size was recorded by vernier calipers and tumor volume was calculated using the formula: V = 0.5×L×W^2, where L is the length (long axis) and W is the width (short axis).
In Group I (control, untreated) only tumor cell line was administered. In group II, YWCS peptide was administered when the tumor volume reached 0.22±0.10 cm^3 on day 10, at a dose of […] intravenously (i.v) per mouse once daily for 20 days from day 11 to day 30. In group III, same concentration of peptide was injected intravenously (i.v) simultaneously after injecting tumor cells subcutaneously on day one. During experimental period mice were under observation till sacrificed.

[10] = biological target: T2, human LOX-12 (human) (UniProt P18054)
T2 sequence: T1 sequence (P18054 1-663)

[11] = biological target: T2, human LOX-12 (human); remark: listed apart in the source
[12] = biological target: T2, human LOX-12 (human); test: enzyme inhibition kinetics (spectrophotometric); 1.0 µM LOX-12 incubated with peptide (25-100 µM) for 30 min; arachidonic acid 20-120 µM, 0.2% Tween-20, 50 mM potassium phosphate pH 7.2; absorbance at 269 nm; competitive Ki from the Michaelis-Menten equation (GraphPad Prism)

Molecule: N[C@@H](Cc1ccc(O)cc1)C(=O)N[C@@H](Cc1c[nH]c2ccccc12)C(=O)N[C@@H](CS)C(=O)N[C@@H](CO)C(=O)O [YWCS] (H-YWCS-OH)
% inhibition [1]: 86.1% | Kd [2]: 0.0339 µM | Percentage of hemolysis of human erythrocytes [3]: 22% | mean percentage apoptotic cells ([4]; MDA-MB-231, 350 µM): 15.0±1.2% | mean percentage apoptotic cells ([4]; MDA-MB-231, 400 µM): 20.8% and 20.8±3.2% | mean percentage apoptotic cells ([4]; MDA-MB-231, 450 µM): 22.1±1.5% | IC50 [5]: 400 µM | percentage of cell viability ([5]; 50 µM): 92% | percentage of cell viability ([5]; 100 µM): 87.46% | percentage of cell viability ([5]; 150 µM): 80.36% | percentage of cell viability ([5]; 200 µM): 72.51% | percentage of cell viability ([5]; 350 µM): 54.76% | percentage of cell viability ([5]; 400 µM): 48.19% | percentage of cell viability ([5]; 500 µM): 43.07% | Mode of inhibition ([6]; linearised analysis of Michaelis-Menten data, in presence of substrate arachidonic acid): competitive mode of inhibition | Ki ([6]; peptide 25-100 µM, arachidonic acid 20-120 µM, enzyme 1.0 µM, Michaelis-Menten fit in graphpad prism, read-out: Competitive kinetic constant Ki): 7.25 µM | percentage cell viability ([7]; 25 µM): 88.6% | percentage cell viability ([7]; 50 µM): 85.7% | percentage cell viability ([7]; 100 µM): 31.2% | percentage cell viability ([7]; 150 µM): 21.1% | IC50 ([7]; read-out: IC50 (cell viability), triplicate): 75 µM | mean percentage apoptotic cells ([8]; MCF-7, 50 µM): 41.2±5.8% | mean percentage apoptotic cells ([8]; MCF-7, 75 µM): 49.8% and 49.8±6.5% | mean percentage apoptotic cells ([8]; MCF-7, 100 µM): 58.3±7.5% | Tumor volume, Day 20 ([9]; Group II, 200 µmol i.v. per mouse once daily from day 11 to day 30, control 2.09±0.06): 1.62±0.49 cm^3 | Tumor volume, Day 30 ([9]; Group II, 200 µmol i.v. per mouse once daily from day 11 to day 30, control 4.5±0.24): 3.04±1.06 cm^3 | Size of liver and spleen in sacrificed animals ([9]; Group II, peptide treated for 20 days, control Group I showed the same): liver and spleen enlargement | Tumor volume, Day 20 ([9]; Group III, 200 µmol peptide i.v. simultaneously after injecting EAT cells s.c. on day one): No tumor was observed; also recorded: No tumor onset

Molecule: AIYW
% inhibition [1]: 69.3%

Molecule: FWY (peptide)
% inhibition of LOX-12 enzyme activity (arachidonic acid substrate, absorbance at 269 nm) [10]: 80.4%

Molecule: WFA (peptide)
% inhibition of LOX-12 enzyme activity (arachidonic acid substrate, absorbance at 269 nm) [10]: 73.5%

Molecule: WKS (peptide)
% inhibition of LOX-12 enzyme activity (arachidonic acid substrate, absorbance at 269 nm) [10]: 53.2%

Molecule: YW (peptide)
% inhibition of LOX-12 enzyme activity (arachidonic acid substrate, absorbance at 269 nm) [10]: 73.2%

Molecule: FWCS
% inhibition of LOX-12 enzyme activity (arachidonic acid substrate, absorbance at 269 nm) [10]: 74.2%

Molecule: AIYW
% inhibition of LOX-12 enzyme activity (arachidonic acid substrate, absorbance at 269 nm) [10]: 69.3%

Molecule: YWCS
% inhibition of LOX-12 enzyme activity (arachidonic acid substrate, absorbance at 269 nm) [10]: 86.1% | % inhibition of LOX-12 enzyme activity (arachidonic acid substrate, absorbance at 269 nm) [11]: 80% | Ki [12]: 7.25 µM

The remaining lines, values ahead:

% inhibition [1]: 85.1%
Molecule: O=c1cc(-c2ccccc2)oc2cc(O)c(O)c(O)c12 [Baicalein, reference compound]

% inhibition [1]: 74.2%
Molecule: FWCS

% inhibition of LOX-12 enzyme activity (arachidonic acid substrate, absorbance at 269 nm) [10]: 79.8%
Molecule: FYS (peptide)

% inhibition of LOX-12 enzyme activity (arachidonic acid substrate, absorbance at 269 nm) [10]: 72.1%
Molecule: WFC (peptide)

% inhibition of LOX-12 enzyme activity (arachidonic acid substrate, absorbance at 269 nm) [10]: 71.6%
Molecule: YWG (peptide)
